Test results published in ChEMBL document CHEMBL1212903, “Neuroprotective xanthone glycosides from Swertia punicea” (2010).

Each compound was assayed on PC-12 (assay: Neuroprotective activity in rat PC12 cells assessed as protection against H2O2-induced cell damage at 25 ug/ml after 1 hr by MTT assay relative to control).
Assay type: functional
O=c1c2c(oc3cc(O)c(-c4cc(O)c5oc6cc(O)cc(O)c6c(=O)c5c4O)c(O)c13)[C@H](O)CC[C@@H]2O[C@@H]1O[C@H](CO)[C@@H](O)[C@H](O)[C@H]1O [PUNICEASIDE B] was tested, and the Activity was 98.1%. CC1=NN(c2ccccc2)C(=O)C1 [EDARAVONE] gave an Activity of 86.9%. O=c1c2c(O)c(-c3cc(O)c4oc5cc(O)cc(O)c5c(=O)c4c3O)c(O)cc2oc2c(O)ccc(O[C@@H]3O[C@H](CO)[C@@H](O)[C@H](O)[C@H]3O)c12 [swertiabisxanthone I] was tested, and the Activity was 123%. In the case of O=c1c2cc(O)c(O)cc2oc2c(-c3cc(O)c4oc5cc(O)cc(O)c5c(=O)c4c3O)c(O)c([C@@H]3O[C@H](CO)[C@@H](O)[C@H](O)[C@H]3O)c(O)c12, the Activity is reported as 157.8%.

What follows are compounds tested on PC-12 (assay: Neuroprotective activity in rat PC12 cells assessed as protection against H2O2-induced cell damage at 12.5 ug/ml after 1 hr by MTT assay relative to control).
Assay type: functional
With O=c1c2c(oc3cc(O)c(-c4cc(O)c5oc6cc(O)cc(O)c6c(=O)c5c4O)c(O)c13)[C@H](O)CC[C@@H]2O[C@@H]1O[C@H](CO)[C@@H](O)[C@H](O)[C@H]1O [PUNICEASIDE B] the Activity was 75.1%. Work on CC1=NN(c2ccccc2)C(=O)C1 [EDARAVONE] yielded an Activity of 74.3%. With O=c1c2c(O)c(-c3cc(O)c4oc5cc(O)cc(O)c5c(=O)c4c3O)c(O)cc2oc2c(O)ccc(O[C@@H]3O[C@H](CO)[C@@H](O)[C@H](O)[C@H]3O)c12 [swertiabisxanthone I] the Activity was 89.1%. In the case of O=c1c2cc(O)c(O)cc2oc2c(-c3cc(O)c4oc5cc(O)cc(O)c5c(=O)c4c3O)c(O)c([C@@H]3O[C@H](CO)[C@@H](O)[C@H](O)[C@H]3O)c(O)c12, the Activity is reported as 95.5%.
